Test results: US9000045B2, “CETP activity inhibitors” (Japan Tobacco Inc., priority 1997, dated 2015)

Target: T1, CETP (Homo sapiens, UniProt P11597)
T1 sequence (P11597 18-493): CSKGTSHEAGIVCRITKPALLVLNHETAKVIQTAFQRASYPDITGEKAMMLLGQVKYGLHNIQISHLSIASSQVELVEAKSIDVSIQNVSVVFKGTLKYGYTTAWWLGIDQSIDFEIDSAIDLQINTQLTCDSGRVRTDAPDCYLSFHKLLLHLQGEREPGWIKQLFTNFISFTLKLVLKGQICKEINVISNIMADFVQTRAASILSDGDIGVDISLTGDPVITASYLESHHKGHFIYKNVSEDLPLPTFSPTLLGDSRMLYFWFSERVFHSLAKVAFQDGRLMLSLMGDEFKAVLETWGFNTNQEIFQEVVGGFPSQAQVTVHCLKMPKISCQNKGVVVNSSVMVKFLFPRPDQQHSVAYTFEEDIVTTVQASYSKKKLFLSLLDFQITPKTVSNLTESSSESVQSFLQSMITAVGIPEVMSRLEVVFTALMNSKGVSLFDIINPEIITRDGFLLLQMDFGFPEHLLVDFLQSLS
Test: In vitro CETP activity inhibitory effect in whole plasma
Assay type: biochemical
Set-up: Plasma containing [^3H]CE-HDL3 (600,000 dpm/ml) was prepared by adding donor lipoprotein obtained in the above (1) to plasma from healthy subjects; from tissue; host or cells: whole plasma of healthy subjects
Settings: plasma from healthy subjects containing [3H]CE-HDL3, incubated 4 hours at 37° C.; read-out: CETP activity inhibition in whole plasma IC50
Method: The fraction thus obtained was dialyzed against a PBS solution [10 mM Na2HPO4/10 mM NaH2PO4/0.15 M NaCl/1 mM EDTA (pH 7.4)]. Then, tritium-labeled cholesterol (10 nM) (50.3 Ci/mM) was dissolved in 95% ethanol and added gradually to the above HDL3 fraction under stirring. The solution was incubated for 18 hours at 37° C. […] After incubation, KBr was added and specific gravity was adjusted to d=1.21 g/ml. […] A sample solution was prepared using a 1:1 solution of N-methylpyrrolidone and polyethyleneglycol 400 as a solvent. […] Based on the inhibition rate (%) of CETP activity, IC50 value of each sample was calculated.

IC50	SMILES
20 µM	CC(C)(C)C(=O)Nc1ccccc1SSc1ccccc1NC(=O)C(C)(C)C [Example 1, bis-[2-(pivaloylamino)phenyl]disulfide]
41 µM	CC(C)C(=O)Nc1ccccc1SSc1ccccc1NC(=O)C(C)C [Example 1-1]
25 µM	CCCCC(=O)Nc1ccccc1SSc1ccccc1NC(=O)CCCC [Example 1-2]
22 µM	O=C(Nc1ccccc1SSc1ccccc1NC(=O)C1CCCCC1)C1CCCCC1 [Example 1-6]
24 µM	O=C(Nc1ccccc1SSc1ccccc1NC(=O)c1ccncc1)c1ccncc1 [Example 1-7]
21 µM	CCCCC(=O)Nc1ccccc1SSc1ccccc1NC(=O)CCCC [Example 1-8]
12 µM	O=C(Nc1ccccc1SSc1ccccc1NC(=O)C12CC3CC(CC(C3)C1)C2)C12CC3CC(CC(C3)C1)C2 [Example 1-12]
18 µM	CC(C)(C)C1CCC(C(=O)Nc2ccccc2SSc2ccccc2NC(=O)C2CCC(C(C)(C)C)CC2)CC1 (stereo not drawn) [Example 1-13]
101 µM	O=C(Nc1ccccc1SSc1ccccc1NC(=O)c1ccccc1)c1ccccc1 [Example 3]
175 µM	O=C(Nc1ccccc1SSc1ccccc1NC(=O)c1cccs1)c1cccs1 [Example 4]
3 µM	CCCC(CCC)C(=O)Nc1ccccc1SSc1ccccc1NC(=O)C(CCC)CCC [Example 5]
5 µM	CC1(C(=O)Nc2ccccc2SSc2ccccc2NC(=O)C2(C)CCCCC2)CCCCC1 [Example 6]
2 µM	CC(C)CCC1(C(=O)Nc2ccccc2SSc2ccccc2NC(=O)C2(CCC(C)C)CCCC2)CCCC1 [Example 7]
99 µM	CC(C)(C)C(=O)Nc1ccccc1S [Example 9, N-(2-mercaptophenyl)-2,2-dimethylpropioneamide]
17 µM	CC1(C(=O)Nc2ccccc2S)CCCCC1 [Example 12]
5 µM	CC(C)CCC1(C(=O)Nc2ccccc2S)CCCC1 [Example 13]
12 µM	CCC1(C(=O)Nc2ccccc2S)CCCCC1 [Example 15]
8 µM	CCCC1(C(=O)Nc2ccccc2S)CCCCC1 [Example 16]
8 µM	CCCCC1(C(=O)Nc2ccccc2S)CCCCC1 [Example 17]
6 µM	CC(C)CC1(C(=O)Nc2ccccc2S)CCCCC1 [Example 18, N-(2-mercaptophenyl)-1-isobutylcyclohexanecarboxamide]
179 µM	COc1ccc(S)c(NC(=O)C2(C)CCCCC2)c1 [Example 19, N-(2-mercapto-5-methoxyphenyl)-1-methylcyclohexanecarboxamide]
19 µM	CC1(C(=O)Nc2cc(F)ccc2S)CCCCC1 [Example 19-1]
33 µM	Cc1ccc(S)c(NC(=O)C2(C)CCCCC2)c1 [Example 19-2]
17 µM	CC1(C(=O)Nc2cc(F)c(F)cc2S)CCCCC1 [Example 19-5]

IC50	SMILES
18 µM	CC1(C(=O)Nc2ccc(F)cc2S)CCCCC1 [Example 19-6]
16 µM	CC(C)CCC1(C(=O)Nc2cc(Cl)c(Cl)cc2S)CCCCC1 [Example 20]
9 µM	CC(C)CCC1(C(=O)Nc2cc(Cl)c(Cl)cc2S)CCCC1 [Example 21]
32 µM	CC(C)(C)C(=O)Nc1ccccc1SC(=O)C1CCCCC1 [Example 25-4]
46 µM	CC(C)(C)C(=O)Nc1ccccc1SC(=O)Cc1ccccc1[N+](=O)[O-] [Example 25-7]
25 µM	CC(C)(C)C(=O)Nc1ccccc1SC(=O)Cc1cccc([N+](=O)[O-])c1 [Example 25-8]
33 µM	CC(C)(C)C(=O)Nc1ccccc1SC(=O)CCCc1ccccc1 [Example 25-12]
28 µM	CC(C)(C)C(=O)Nc1ccccc1CC(=O)Sc1ccccc1NC(=O)C(C)(C)C [Example 25-13]
30 µM	CC(C)(C)C(=O)Nc1ccccc1SC(=O)CCc1ccccc1 [Example 25-14]
41 µM	CC1(C(=O)Nc2ccccc2SC(=O)CC2CCCCC2)CCCCC1 [Example 25-16]
23 µM	CC1(C(=O)Nc2ccccc2SC(=O)Cc2ccccc2)CCCCC1 [Example 25-17]
19 µM	CC(C)(C)C(=O)Nc1ccccc1CC(=O)Sc1ccccc1NC(=O)C1(C)CCCCC1 [Example 25-18]
22 µM	CC1(C(=O)Nc2ccccc2CC(=O)Sc2ccccc2NC(=O)C2(C)CCCCC2)CCCCC1 [Example 25-19]
48 µM	CC(C)(C)C(=O)Nc1ccccc1SC(=O)Cc1ccccc1NC(=O)C1(C)CCCCC1 [Example 25-20]
28 µM	CC1(C(=O)Nc2ccccc2SC(=O)Cc2ccc(Cl)cc2)CCCCC1 [Example 25-21]
27 µM	CC1(C(=O)Nc2ccccc2SC(=O)Cc2cccc(Cl)c2)CCCCC1 [Example 25-22]
25 µM	CC1(C(=O)Nc2ccccc2SC(=O)Cc2ccccc2Cl)CCCCC1 [Example 25-23]
24 µM	CC1(C(=O)Nc2ccccc2SC(=O)Cc2ccc3ccccc3c2)CCCCC1 [Example 25-25]
22 µM	CC1(C(=O)Nc2ccccc2SC(=O)Cc2ccc(-c3ccccc3)cc2)CCCCC1 [Example 25-26]
21 µM	CC1(C(=O)Nc2ccccc2SC(=O)c2cccnc2)CCCCC1 [Example 25-27]
21 µM	CC1(C(=O)Nc2ccccc2SC(=O)Cc2cccs2)CCCCC1 [Example 25-28]
21 µM	CC1(C(=O)Nc2cccc(CC(=O)Sc3ccccc3NC(=O)C3(C)CCCCC3)c2)CCCCC1 [Example 25-30]
21 µM	CC(=O)Nc1cccc(CC(=O)Sc2ccccc2NC(=O)C2(C)CCCCC2)c1 [Example 25-31]
20 µM	CC(=O)N[C@@H](Cc1ccccc1)C(=O)Sc1ccccc1NC(=O)C1(C)CCCCC1 [Example 25-32]

IC50	SMILES
18 µM	CC(=O)NCC(=O)Sc1ccccc1NC(=O)C1(C)CCCCC1 [Example 25-33]
21 µM	CC(C)(C)OC(=O)Nc1ccccc1CC(=O)Sc1ccccc1NC(=O)C1(C)CCCCC1 [Example 25-34]
27 µM	CC(=O)N[C@@H](CC(C)C)C(=O)Sc1ccccc1NC(=O)C1(C)CCCCC1 [Example 25-35]
30 µM	CC(=O)N[C@@H](Cc1ccc(O)cc1)C(=O)Sc1ccccc1NC(=O)C1(C)CCCCC1 [Example 25-36]
24 µM	CC(=O)N1CCC[C@H]1C(=O)Sc1ccccc1NC(=O)C1(C)CCCCC1 [Example 25-37]
20 µM	CC(=O)N[C@@H](C(=O)Sc1ccccc1NC(=O)C1(C)CCCCC1)c1ccccc1 [Example 25-38]
22 µM	CC(=O)N[C@H](C(=O)Sc1ccccc1NC(=O)C1(C)CCCCC1)c1ccccc1 [Example 25-39]
23 µM	CC1(C(=O)Nc2ccccc2SC(=O)[C@H](NC(=O)c2ccccc2)c2ccccc2)CCCCC1 [Example 25-40]
26 µM	CC1(C(=O)Nc2ccccc2SC(=O)[C@H](NC(=O)C2(C)CCCCC2)c2ccccc2)CCCCC1 [Example 25-41]
22 µM	CC1(C(=O)Nc2ccccc2SC(=O)[C@H](N)c2ccccc2)CCCCC1 [Example 25-42]
9 µM	CC(=O)N[C@@H](C)C(=O)Sc1ccccc1NC(=O)C1(CCC(C)C)CCCCC1 [Example 25-44]
29 µM	CC(C)CCC1(C(=O)Nc2ccccc2SC(=O)C(c2ccccc2)c2ccccc2)CCCCC1 [Example 25-47]
23 µM	CC(C)CCC1(C(=O)Nc2ccccc2SC(=O)c2ccc(C(=O)Sc3ccccc3NC(=O)C3(CCC(C)C)CCCCC3)cc2)CCCCC1 [Example 25-48]
6 µM	CC(C)CCC1(C(=O)Nc2ccccc2SC(=O)[C@@H]2CCC(=O)N2)CCCCC1 [Example 25-54]
10 µM	CC(C)CCC1(C(=O)Nc2ccccc2SC(=O)[C@@H]2CCCN2C(=O)c2ccccc2)CCCCC1 [Example 25-55]
5 µM	CC(C)CCC1(C(=O)Nc2ccccc2SC(=O)c2cccnc2)CCCC1 [Example 25-60]
20 µM	CC(C)CCC1(C(=O)Nc2ccccc2SC(=O)C2CCCCC2)CCCC1 [Example 25-64]
9 µM	CC(C)CCC1(C(=O)Nc2ccccc2SC(=O)C2CCN(C)CC2)CCCC1 [Example 25-65]
35 µM	CC1(C(=O)Nc2cc(C(F)(F)F)ccc2SC(=O)Cc2ccccc2)CCCCC1 [Example 25-66]
40 µM	CC(C)(C)C(=O)Sc1ccc(C(F)(F)F)cc1NC(=O)C1(C)CCCCC1 [Example 25-67]
27 µM	CC(C)(C)C(=O)Sc1cc(F)c(F)cc1NC(=O)C1(C)CCCCC1 [Example 25-72]
36 µM	CC(=O)N[C@@H](Cc1ccccc1)C(=O)Sc1cc(Cl)c(Cl)cc1NC(=O)C1(CCC(C)C)CCCCC1 [Example 25-76]
7 µM	CC(C)CCC1(C(=O)Nc2cc(Cl)c(Cl)cc2SC(=O)c2cccnc2)CCCCC1 [Example 25-77]
11 µM	CC(C)CCC1(C(=O)Nc2cc(Cl)c(Cl)cc2SC(=O)C2CCN(C)CC2)CCCCC1 [Example 25-78]
